Data reported in ChEMBL document CHEMBL3612012, “Identification of orally-bioavailable antagonists of the TRPV4 ion-channel” (Bioorg Med Chem Lett, 2015).
Converted amounts (≈) assume the structure as drawn.

Experiments:
[1] = biological target: Beta-1 adrenergic receptor (Homo sapiens) (UniProt P08588); experiment: Binding affinity to human beta1 adrenergic receptor assessed as inhibition of control specific binding at 10 uM
[2] = Solubility of the compound at pH 7.4; format: physicochemical; conditions: buffer
[3] = AUC (infinity) in Wistar rat at 29.73 mg/kg, po; format: ADME, organism-based; design: dose 29.73 mg/kg, time infinity, route oral; conditions: in vivo
[4] = biological target: Adrenergic receptor alpha-1 (Homo sapiens) (UniProt P35348+P25100+P35368); experiment: Binding affinity to non-selective alpha1 adrenergic receptor (unknown origin) assessed as inhibition of control specific binding at 10 uM; format: protein assay
[5] = biological target: Neuromedin-K receptor (Homo sapiens) (UniProt P29371); experiment: Binding affinity to human NK3 receptor assessed as inhibition of control specific binding at 10 uM
[6] = biological target: Mu-type opioid receptor (Homo sapiens) (UniProt P35372); experiment: Binding affinity to human mu opioid receptor agonist site assessed as inhibition of control specific binding at 10 uM
[7] = AUC (infinity) in Wistar rat at 32.50 mg/kg, ip; format: ADME, organism-based; design: dose 32.5 mg/kg, route intraperitoneal, time infinity; conditions: in vivo, 32.5 mg/kg
[8] = Plasma protein binding in rat; format: ADME, cell-free; conditions: read-out: PPB (converted)
Homo sapiens [9] = species on record: Homo sapiens; experiment: Binding affinity to chloride channel (unknown origin) assessed as inhibition of control specific binding at 10 uM
[10] = biological target: Neuropeptide Y receptor type 2 (Homo sapiens) (UniProt P49146); experiment: Binding affinity to human Y2 receptor assessed as inhibition of control specific binding at 10 uM
[11] = biological target: Transient receptor potential cation channel subfamily M member 8 (Homo sapiens, UniProt Q7Z2W7); experiment: Antagonist activity at human TRPM8 receptor expressed in HEK293 cells assessed as inhibition of menthol-stimulated calcium flux after 10 mins; format: cell-based
[12] = biological target: Transient receptor potential cation channel subfamily V member 3 (Homo sapiens, UniProt Q8NET8); experiment: Antagonist activity at human TRPV3 receptor expressed in HEK293 cells assessed as inhibition of capsaicin-stimulated calcium flux after 10 mins; format: cell-based
[13] = Cmax in Wistar rat at 32.50 mg/kg, ip; format: ADME, organism-based; design: dose 32.5 mg/kg, route intraperitoneal; conditions: in vivo, 32.5 mg/kg
[14] = biological target: potassium channel (voltage-gated potassium channel family) (Homo sapiens, UniProt O43525+O43526+O95259+P16389+P17658+P22001+P22459+P22460+P48547+P51787+P56696+Q03721+Q09470+Q12809+Q14003+Q14721+Q16322+Q6PIU1+Q8NCM2+Q8TAE7+Q8TDN1+Q8TDN2+Q92953+Q96KK3+Q96L42+Q96PR1+Q96RP8+Q9BQ31+Q9H252+Q9H3M0+Q9NR82+Q9NS40+Q9NSA2+Q9NZV8+Q9UIX4+Q9UJ96+Q9UK17+Q9ULD8+Q9ULS6+Q9UQ05); experiment: Binding affinity to potassium channel (unknown origin) assessed as inhibition of control specific binding at 10 uM; format: protein assay
[15] = Cmax in Wistar rat at 29.73 mg/kg, po; format: ADME, organism-based; design: dose 29.73 mg/kg, route oral; conditions: in vivo
[16] = biological target: Adenosine receptor A3 (Homo sapiens) (UniProt P0DMS8); experiment: Binding affinity to human adenosine A3 receptor assessed as inhibition of control specific binding at 10 uM
[17] = biological target: Type-1 angiotensin II receptor (Homo sapiens) (UniProt P30556); experiment: Binding affinity to human AT1 receptor assessed as inhibition of control specific binding at 10 uM
[18] = biological target: T1, Transient receptor potential cation channel subfamily V member 4 (Rattus norvegicus, UniProt Q9ERZ8); experiment: Antagonist activity at rat TRPV4 expressed in HEK293 cells assessed as inhibition of 20% hypotonic solution-induced Ca2+ influx; format: cell-based
[19] = biological target: Histamine H1 receptor (Homo sapiens) (UniProt P35367); experiment: Binding affinity to human H1 receptor assessed as inhibition of control specific binding at 10 uM
[20] = biological target: GABA-A receptor; agonist GABA site (Homo sapiens) (UniProt P14867+P47870+P28472+P48169+P34903+P18505+P47869+P31644+Q16445); experiment: Binding affinity to GABAA receptor (unknown origin) assessed as inhibition of control specific binding at 10 uM; format: protein-complex assay
[21] = biological target: T1, Transient receptor potential cation channel subfamily V member 4; experiment: Antagonist activity at rat TRPV4 receptor expressed in HEK293 cells assessed as inhibition of 4alpha-PDD-stimulated calcium flux after 10 mins; format: cell-based
[22] = biological target: Transient receptor potential cation channel subfamily V member 1 (Homo sapiens, UniProt Q8NER1); experiment: Antagonist activity at human TRPV1 receptor expressed in HEK293 cells assessed as inhibition of capsaicin-stimulated calcium flux after 10 mins; format: cell-based
[23] = biological target: D(1A) dopamine receptor (Homo sapiens) (UniProt P21728); experiment: Binding affinity to human D1 receptor assessed as inhibition of control specific binding at 10 uM
[24] = biological target: Cholecystokinin receptor type A (Homo sapiens) (UniProt P32238); experiment: Binding affinity to human CCKA receptor assessed as inhibition of control specific binding at 10 uM
[25] = biological target: C-X-C chemokine receptor type 2 (Homo sapiens) (UniProt P25025); experiment: Binding affinity to human CXCR2 receptor assessed as inhibition of control specific binding at 10 uM
[26] = biological target: Endothelin-1 receptor (Homo sapiens) (UniProt P25101); experiment: Binding affinity to human ETA receptor assessed as inhibition of control specific binding at 10 uM
[27] = Oral bioavailability in Wistar rat at 29.73 mg/kg; format: ADME, organism-based; conditions: in vivo
Homo sapiens [28] = species on record: Homo sapiens; experiment: Binding affinity to verapamil site of calcium channel L (unknown origin) assessed as inhibition of control specific binding at 10 uM
[29] = biological target: Neurotensin receptor type 1 (Homo sapiens) (UniProt P30989); experiment: Binding affinity to human NT1 receptor assessed as inhibition of control specific binding at 10 uM
[30] = biological target: 5-hydroxytryptamine receptor 1A (Homo sapiens) (UniProt P08908); experiment: Binding affinity to human 5-HT1A receptor assessed as inhibition of control specific binding at 10 uM
[31] = biological target: Thromboxane A2 receptor (Homo sapiens) (UniProt P21731); experiment: Binding affinity to human TP receptor assessed as inhibition of control specific binding at 10 uM
[32] = biological target: Sodium-dependent serotonin transporter (Homo sapiens) (UniProt P31645); experiment: Binding affinity to human 5-HT transporter assessed as inhibition of control specific binding at 10 uM
[33] = biological target: Muscarinic acetylcholine receptor M1 (Homo sapiens) (UniProt P11229); experiment: Binding affinity to human M1 receptor assessed as inhibition of control specific binding at 10 uM
Homo sapiens [34] = species on record: Homo sapiens; experiment: Binding affinity to SST receptor (unknown origin) assessed as inhibition of control specific binding at 10 uM
[35] = biological target: Melanocortin receptor 4 (Homo sapiens) (UniProt P32245); experiment: Binding affinity to human MC4 receptor assessed as inhibition of control specific binding at 10 uM
[36] = biological target: 5-hydroxytryptamine receptor 7 (Homo sapiens) (UniProt P34969); experiment: Binding affinity to human 5-HT7 receptor assessed as inhibition of control specific binding at 10 uM
[37] = Half life in Wistar rat at 1.40 mg/kg, iv; format: ADME, organism-based; conditions: in vivo, 1.4 mg/kg

T1 sequence (Q9ERZ8 whole entry): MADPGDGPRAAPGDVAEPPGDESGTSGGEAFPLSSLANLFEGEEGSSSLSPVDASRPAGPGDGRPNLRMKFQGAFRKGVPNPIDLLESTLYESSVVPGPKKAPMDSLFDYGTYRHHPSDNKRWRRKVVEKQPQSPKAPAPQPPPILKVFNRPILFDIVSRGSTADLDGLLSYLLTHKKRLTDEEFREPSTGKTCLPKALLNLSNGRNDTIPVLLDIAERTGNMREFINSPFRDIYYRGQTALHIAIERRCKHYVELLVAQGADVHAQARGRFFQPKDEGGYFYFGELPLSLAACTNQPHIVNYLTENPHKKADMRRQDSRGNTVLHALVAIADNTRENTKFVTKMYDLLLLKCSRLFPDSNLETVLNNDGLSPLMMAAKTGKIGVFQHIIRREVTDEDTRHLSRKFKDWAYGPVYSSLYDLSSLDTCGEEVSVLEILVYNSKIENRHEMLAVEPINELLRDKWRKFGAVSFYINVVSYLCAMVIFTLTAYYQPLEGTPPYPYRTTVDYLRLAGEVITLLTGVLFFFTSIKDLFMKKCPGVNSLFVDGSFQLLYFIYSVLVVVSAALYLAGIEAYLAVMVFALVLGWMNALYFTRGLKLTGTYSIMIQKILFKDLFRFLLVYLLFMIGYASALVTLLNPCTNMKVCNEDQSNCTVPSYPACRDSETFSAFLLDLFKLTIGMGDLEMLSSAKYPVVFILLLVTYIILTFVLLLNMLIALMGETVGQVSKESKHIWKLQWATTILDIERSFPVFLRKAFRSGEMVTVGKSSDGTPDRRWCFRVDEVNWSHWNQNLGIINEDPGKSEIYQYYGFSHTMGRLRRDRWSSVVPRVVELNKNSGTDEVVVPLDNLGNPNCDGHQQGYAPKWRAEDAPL
Chain of Sodium-dependent serotonin transporter (Homo sapiens) (P31645 whole entry, looked up): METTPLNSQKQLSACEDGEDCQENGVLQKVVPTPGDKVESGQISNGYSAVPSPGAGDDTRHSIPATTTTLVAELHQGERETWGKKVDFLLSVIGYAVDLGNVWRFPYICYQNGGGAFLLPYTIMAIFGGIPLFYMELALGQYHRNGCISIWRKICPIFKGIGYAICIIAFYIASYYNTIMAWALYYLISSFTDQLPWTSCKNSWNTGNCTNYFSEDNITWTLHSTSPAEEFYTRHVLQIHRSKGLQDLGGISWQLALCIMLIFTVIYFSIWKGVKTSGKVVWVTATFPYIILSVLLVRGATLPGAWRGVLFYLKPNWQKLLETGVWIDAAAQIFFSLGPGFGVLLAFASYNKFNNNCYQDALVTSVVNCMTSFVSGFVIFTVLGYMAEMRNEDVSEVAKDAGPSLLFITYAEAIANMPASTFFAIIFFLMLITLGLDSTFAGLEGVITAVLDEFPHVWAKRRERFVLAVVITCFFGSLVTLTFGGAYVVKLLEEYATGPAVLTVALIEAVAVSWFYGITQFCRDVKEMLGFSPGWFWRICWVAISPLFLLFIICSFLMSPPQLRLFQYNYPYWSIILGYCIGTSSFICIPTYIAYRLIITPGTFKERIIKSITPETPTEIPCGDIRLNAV
Chain of 5-hydroxytryptamine receptor 7 (Homo sapiens) (P34969 whole entry): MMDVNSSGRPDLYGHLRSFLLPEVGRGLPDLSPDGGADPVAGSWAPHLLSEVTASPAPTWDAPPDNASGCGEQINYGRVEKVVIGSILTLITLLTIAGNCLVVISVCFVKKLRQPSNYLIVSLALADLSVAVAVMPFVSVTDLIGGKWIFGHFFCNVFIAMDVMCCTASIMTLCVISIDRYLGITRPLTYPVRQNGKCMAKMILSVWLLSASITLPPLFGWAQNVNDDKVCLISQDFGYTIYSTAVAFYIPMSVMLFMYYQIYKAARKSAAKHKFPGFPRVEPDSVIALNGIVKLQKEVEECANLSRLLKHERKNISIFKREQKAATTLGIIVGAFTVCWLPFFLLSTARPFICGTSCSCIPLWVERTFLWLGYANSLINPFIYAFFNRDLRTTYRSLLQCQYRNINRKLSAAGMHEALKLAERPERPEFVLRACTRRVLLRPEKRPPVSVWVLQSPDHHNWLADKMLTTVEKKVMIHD
Chain of Neuromedin-K receptor (Homo sapiens) (P29371 whole entry): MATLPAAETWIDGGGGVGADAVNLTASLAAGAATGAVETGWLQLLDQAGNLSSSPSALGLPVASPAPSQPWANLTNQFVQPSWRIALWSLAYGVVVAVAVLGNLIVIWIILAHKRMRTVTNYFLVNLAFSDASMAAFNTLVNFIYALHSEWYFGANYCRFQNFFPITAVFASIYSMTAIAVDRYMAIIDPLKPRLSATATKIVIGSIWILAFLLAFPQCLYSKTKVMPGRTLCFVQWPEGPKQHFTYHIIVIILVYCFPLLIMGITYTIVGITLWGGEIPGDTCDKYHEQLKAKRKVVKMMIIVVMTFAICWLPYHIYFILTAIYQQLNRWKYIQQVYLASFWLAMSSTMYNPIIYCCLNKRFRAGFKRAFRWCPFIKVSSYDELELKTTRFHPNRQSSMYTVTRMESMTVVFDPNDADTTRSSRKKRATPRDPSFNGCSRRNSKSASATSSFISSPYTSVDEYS
Chain of Endothelin-1 receptor (Homo sapiens) (P25101 whole entry): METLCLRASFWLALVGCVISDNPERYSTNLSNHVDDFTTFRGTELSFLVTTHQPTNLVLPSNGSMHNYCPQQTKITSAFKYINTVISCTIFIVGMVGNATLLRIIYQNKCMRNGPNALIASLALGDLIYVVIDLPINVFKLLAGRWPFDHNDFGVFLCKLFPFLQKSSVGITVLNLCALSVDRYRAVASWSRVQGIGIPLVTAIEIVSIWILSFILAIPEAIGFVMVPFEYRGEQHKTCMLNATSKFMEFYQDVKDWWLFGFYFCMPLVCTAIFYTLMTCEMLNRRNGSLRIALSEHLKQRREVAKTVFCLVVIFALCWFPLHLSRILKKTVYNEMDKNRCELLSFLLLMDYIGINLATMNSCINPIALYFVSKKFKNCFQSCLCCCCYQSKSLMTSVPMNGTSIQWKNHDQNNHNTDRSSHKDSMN
Chain of Muscarinic acetylcholine receptor M1 (Homo sapiens) (P11229 whole entry): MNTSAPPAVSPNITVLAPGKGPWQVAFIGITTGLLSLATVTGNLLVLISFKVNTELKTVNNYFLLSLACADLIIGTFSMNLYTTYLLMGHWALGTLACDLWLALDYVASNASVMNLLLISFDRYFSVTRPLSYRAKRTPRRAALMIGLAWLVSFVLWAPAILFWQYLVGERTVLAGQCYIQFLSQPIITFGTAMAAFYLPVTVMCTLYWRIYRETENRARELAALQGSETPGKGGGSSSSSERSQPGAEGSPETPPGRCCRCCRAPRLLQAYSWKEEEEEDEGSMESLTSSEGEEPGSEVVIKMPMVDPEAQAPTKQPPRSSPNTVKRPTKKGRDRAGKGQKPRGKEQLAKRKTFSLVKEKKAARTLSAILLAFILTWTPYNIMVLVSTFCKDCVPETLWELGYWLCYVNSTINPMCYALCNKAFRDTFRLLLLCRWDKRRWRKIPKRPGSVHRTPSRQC
Chain of Mu-type opioid receptor (Homo sapiens) (P35372 whole entry): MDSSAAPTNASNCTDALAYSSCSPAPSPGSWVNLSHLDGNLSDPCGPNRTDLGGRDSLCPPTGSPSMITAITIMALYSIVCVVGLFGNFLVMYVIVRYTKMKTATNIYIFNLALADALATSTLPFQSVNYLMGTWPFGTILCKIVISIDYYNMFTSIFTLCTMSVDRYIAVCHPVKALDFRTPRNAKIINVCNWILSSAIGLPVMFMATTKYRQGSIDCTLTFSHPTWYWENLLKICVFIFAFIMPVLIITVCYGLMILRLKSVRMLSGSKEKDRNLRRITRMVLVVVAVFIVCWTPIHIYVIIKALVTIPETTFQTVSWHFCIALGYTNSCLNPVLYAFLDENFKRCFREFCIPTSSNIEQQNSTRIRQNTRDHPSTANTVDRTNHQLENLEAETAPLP
Chain of Melanocortin receptor 4 (Homo sapiens) (P32245 whole entry): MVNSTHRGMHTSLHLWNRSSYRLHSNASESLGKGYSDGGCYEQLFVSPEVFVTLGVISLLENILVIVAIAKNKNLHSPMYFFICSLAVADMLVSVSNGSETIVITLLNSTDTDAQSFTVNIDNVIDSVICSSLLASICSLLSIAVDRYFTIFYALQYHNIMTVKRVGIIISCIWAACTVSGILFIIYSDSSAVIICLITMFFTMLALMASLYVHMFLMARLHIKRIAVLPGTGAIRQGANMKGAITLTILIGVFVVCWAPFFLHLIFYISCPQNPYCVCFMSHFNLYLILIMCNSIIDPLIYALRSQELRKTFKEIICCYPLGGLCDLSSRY
Chain of Thromboxane A2 receptor (Homo sapiens) (P21731 whole entry): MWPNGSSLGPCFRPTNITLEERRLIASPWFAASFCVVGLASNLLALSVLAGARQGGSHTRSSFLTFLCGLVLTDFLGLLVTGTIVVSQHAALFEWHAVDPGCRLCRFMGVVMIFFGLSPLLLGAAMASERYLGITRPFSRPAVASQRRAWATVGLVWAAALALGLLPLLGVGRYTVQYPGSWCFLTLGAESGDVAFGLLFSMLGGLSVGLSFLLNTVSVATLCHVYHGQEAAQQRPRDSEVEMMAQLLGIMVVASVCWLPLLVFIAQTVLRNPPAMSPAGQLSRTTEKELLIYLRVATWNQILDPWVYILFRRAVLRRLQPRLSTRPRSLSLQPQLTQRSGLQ
Chain of D(1A) dopamine receptor (Homo sapiens) (P21728 whole entry): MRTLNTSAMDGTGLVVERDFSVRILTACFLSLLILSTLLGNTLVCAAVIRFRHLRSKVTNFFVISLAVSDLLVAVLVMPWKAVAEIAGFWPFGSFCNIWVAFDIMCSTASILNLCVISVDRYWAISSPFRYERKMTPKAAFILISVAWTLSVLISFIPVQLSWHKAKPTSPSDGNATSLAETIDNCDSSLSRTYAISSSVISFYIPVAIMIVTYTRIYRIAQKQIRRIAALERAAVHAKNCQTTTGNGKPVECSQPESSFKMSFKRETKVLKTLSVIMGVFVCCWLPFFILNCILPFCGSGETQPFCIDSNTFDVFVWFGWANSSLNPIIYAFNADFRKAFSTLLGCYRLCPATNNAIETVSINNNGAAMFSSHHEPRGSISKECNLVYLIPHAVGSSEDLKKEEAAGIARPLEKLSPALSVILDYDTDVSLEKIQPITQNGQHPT

- inhibition [1]: 4%
- solubility [2]: 45.5 µM (≈ 22.8 µg/mL)
- AUC(0-inf) [3]: 10100 ng·h/mL
- inhibition [4]: 6%
- inhibition [5]: 2%
- inhibition [6]: 9%
- AUC(0-inf) [7]: 16500 ng·h/mL
- fraction unbound [8]: 0.01
- inhibition (Homo sapiens [9]): 24%
- inhibition [10]: 1%
- IC50 [11]: 30 µM
- IC50 [12]: > 30 µM
- Cmax [13]: 10600 ng/mL
- inhibition at 10 µM [14]: -25%
- Cmax [15]: 3820 ng/mL
- inhibition [16]: 10%
- inhibition [17]: -6%
- IC50 [18]: 2.1 µM
- inhibition [19]: 4%
- inhibition [20]: 3%
- IC50 [21]: 0.12 µM
- IC50 [22]: > 10 µM
- inhibition [23]: 1%
- inhibition [24]: 3%
- inhibition [25]: -4%
- inhibition [26]: -4%
- bioavailability [27]: 46.8%
- inhibition (Homo sapiens [28]): 7%
- inhibition [29]: -6%
- inhibition [30]: -4%
- inhibition [31]: -6%
- inhibition [32]: 6%
- inhibition [33]: 76%
- inhibition (Homo sapiens [34]): -1%
- inhibition [35]: -8%
- inhibition [36]: -5%
- half-life [37]: 42.6 min
SMILES: CC(C)N1CCN(S(=O)(=O)c2ccc(NC(=O)c3ccc(C(F)(F)F)cc3[N+](=O)[O-])cc2)CC1
